In assay [1] the target is T1, CD73 (Homo sapiens (Human), UniProt P21589). The assay is described as follows: CD73 Biochemical IC50 Assay. The following applies: CD73 0.3 nM, AMP 15 uM, 25 mM Tris pH 7.4, 5 mM MgCl2. How it is done: CD73 Biochemical IC50 Assay
Compound serial dilutions were pre-spotted into Thermo Nunc assay plate. 50 μL CD73 enzyme buffer (CD73 purchased from R&D system=0.6 nM, 25 mM Tris, pH 7.4, 5 mM MgCl2) was added into the assay plate and incubated for 15 mins. […] The samples were run using Rapid fire.

In assay [2] the target is T1, CD73. The assay is described as follows: MDA-MB-231 Cell Based CD73 Activity Assay. The following applies: MDA-MB-231-GFP cells, RPMI medium with 10% human plasma, 200 uM AMP. How it is done: MDA-MB-231 Cell Based CD73 Activity Assay
MDA-MB-231-GFP cells were seeded in 384-well plates (Greiner 781946) at a density of 10000 cells per well in 50 μL of RPMI medium with 10% HP (human plasma). Cells were plated into assay plate with compounds pre-spotted, for an overnight compound treatment. 50 μL of 400 μM AMP (final concentration 200 μM) using a Bio-tek dispenser. Plates were incubated for 100 mins. […] The samples were run using Rapid fire.

SMILES strings stand for the structures. Several values for one entry are separate records, joined by “and”; a condition that tells them apart may be missing. Equal values may be shown once.

T1 sequence (P21589 27-574): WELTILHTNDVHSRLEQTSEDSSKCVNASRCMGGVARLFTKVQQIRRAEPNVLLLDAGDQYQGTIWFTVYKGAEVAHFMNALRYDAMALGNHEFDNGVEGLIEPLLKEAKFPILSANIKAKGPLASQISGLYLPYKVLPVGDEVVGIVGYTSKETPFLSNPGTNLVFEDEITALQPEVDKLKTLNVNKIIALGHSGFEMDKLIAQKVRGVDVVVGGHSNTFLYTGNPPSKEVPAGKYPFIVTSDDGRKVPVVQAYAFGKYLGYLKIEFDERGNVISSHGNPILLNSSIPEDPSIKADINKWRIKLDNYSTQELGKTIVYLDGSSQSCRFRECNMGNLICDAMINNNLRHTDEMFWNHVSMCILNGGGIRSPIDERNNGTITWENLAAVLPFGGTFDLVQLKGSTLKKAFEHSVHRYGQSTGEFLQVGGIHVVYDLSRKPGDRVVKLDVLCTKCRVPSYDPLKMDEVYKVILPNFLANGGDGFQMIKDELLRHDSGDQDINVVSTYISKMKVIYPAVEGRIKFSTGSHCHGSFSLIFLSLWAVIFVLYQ

Take `O=c1[nH]cc(-c2cc([C@H]3C[C@@H]3c3ccc(F)c(Cl)c3)c3nccn3n2)c(=O)[nH]1` (racemic) [Example 99, 5-(8-((1S,2S)-2-(3-chloro-4-fluorophenyl)cyclopropyl)imidazo[1,2-b]pyridazin-6-yl)pyrimidine-2,4(1H,3H)-dione and 5-(8-((1R,2R)-2-(3-chloro-4-fluorophenyl)cyclopropyl)imidazo[1,2-b]pyridazin-6-yl)pyrimidine-2,4(1H,3H)-dione]: at CD73 [1], inhibition was half-maximal at 0.0193 µM (IC50). This molecule also came in with an EC50 on CD73 [2] of 0.00605 µM.

For the molecule `O=c1[nH]cc(-c2cc([C@H]3C[C@@H]3Cc3ccccc3)c3nccn3n2)c(=O)[nH]1` (racemic) [Example 105, 5-(8-((1S,2R)-2-benzylcyclopropyl)imidazo[1,2-b]pyridazin-6-yl)pyrimidine-2,4(1H,3H)-dione and 5-(8-((1R,2S)-2-benzylcyclopropyl)imidazo[1,2-b]pyridazin-6-yl)pyrimidine-2,4(1H,3H)-dione], the IC50 against CD73 [1] worked out at 0.285 µM. This molecule displayed an EC50 at CD73 [2] of 0.0385 µM.

The molecule `N#Cc1ccc(C[C@H]2C[C@@H]2c2cc(-c3c[nH]c(=O)[nH]c3=O)nn3ccnc23)cc1` (racemic) [Example 111, 4-(41R,2S)-2-(6-(2,4-dioxo-1,2,3,4-tetrahydropyrimidin-5-yl)imidazo[1,2-b]pyridazin-8-yl)cyclopropyl)methyl)benzonitrile and 4-(((1S,2R)-2-(6-(2,4-dioxo-1,2,3,4-tetrahydropyrimidin-5-yl)imidazo[1,2-b]pyridazin-8-yl)cyclopropyl)methyl)benzonitrile] had an IC50 at CD73 [1] of 0.205 µM. The same molecule came in with a half-maximal effective concentration (EC50) on CD73 [2] of 0.0715 µM.

Consider `O=c1[nH]cc(-c2cc(N3CCC(c4ccc(F)cc4)C3)c3nccn3n2)c(=O)[nH]1` (stereo in doubt) [Example 68, 5-[8-[(3S)-3-(4-fluorophenyl)pyrrolidin-1-yl]imidazo[1,2-b]pyridazin-6-yl]-1H-pyrimidine-2,4-dione], for which the IC50 against CD73 [1] was determined as 0.0695 µM. Also, on CD73 [2], the response was half-maximal at 0.0675 µM (EC50).

Turning to `Cc1cn2nc(-c3c[nH]c(=O)[nH]c3=O)cc(C3CC3)c2n1` [Example 1, 5-(8-cyclopropyl-2-methyl-imidazo[1,2-b]pyridazin-6-yl)-1H-pyrimidine-2,4-dione], the IC50 against CD73 [1] was determined as 0.507 µM. This molecule returned an EC50 at CD73 [2] of 0.413 µM.

Turning to `O=c1[nH]cc(-c2cc(C3CC3)c3nc(-c4ccccc4)cn3n2)c(=O)[nH]1` [Example 2, 5-(8-cyclopropyl-2-phenyl-imidazo[1,2-b]pyridazin-6-yl)-1H-pyrimidine-2,4-dione], the IC50 against CD73 [1] was 0.0324 µM. This molecule came in with an EC50 on CD73 [2] of 0.0533 µM.

In the case of `CCOC(=O)c1cn2nc(-c3c[nH]c(=O)[nH]c3=O)cc(C3CC3)c2n1` [Example 3, Ethyl 8-cyclopropyl-6-(2,4-dioxo-1H-pyrimidin-5-yl)imidazo[1,2-b]pyridazine-2-carboxylate], the IC50 on CD73 [1] came to 0.235 µM. On CD73 [2], this molecule registered an EC50 of 0.195 µM.

`O=c1[nH]cc(-c2cc(N3CCOCC3)c3nccn3n2)c(=O)[nH]1` [Example 10, 5-(8-morpholinoimidazo[1,2-b]pyridazin-6-yl)-1H-pyrimidine-2,4-dione] registered an IC50 on CD73 [1] of 0.98 µM. The molecule further yielded an EC50 on CD73 [2] of 0.473 µM.

Consider `O=c1[nH]cc(-c2cc(-n3ccnc3)c3nccn3n2)c(=O)[nH]1` [Example 11, 5-(8-imidazol-1-ylimidazo[1,2-b]pyridazin-6-yl)-1H-pyrimidine-2,4-dione], for which the IC50 against CD73 [1] was 0.11 µM. The EC50 on CD73 [2] is 0.0741 µM.

As to `O=c1[nH]cc(-c2cc(NCc3ccccc3)c3nccn3n2)c(=O)[nH]1` [Example 12, 5-(8-(benzylamino)imidazo[1,2-b]pyridazin-6-yl)pyrimidine-2,4(1H,3H)-dione], the IC50 against CD73 [1] was 0.479 µM and 0.653 µM. Moreover, at CD73 [2], the EC50 was 0.508 µM and 0.689 µM.

Turning to `CN(Cc1ccccc1)c1cc(-c2c[nH]c(=O)[nH]c2=O)nn2ccnc12` [Example 13, 5-(8-(benzyl(methyl)amino)imidazo[1,2-b]pyridazin-6-yl)pyrimidine-2,4(1H,3H)-dione], on CD73 [1], the 50% inhibitory concentration (IC50) is 0.368 µM and 0.607 µM. Moreover, the EC50 at CD73 [2] is 0.692 µM and 0.896 µM.

Turning to `O=c1[nH]cc(-c2cc(C3CCC(F)(F)CC3)c3nccn3n2)c(=O)[nH]1` [Example 14, 5-(8-(4,4-difluorocyclohexyl)imidazo[1,2-b]pyridazin-6-yl)pyrimidine-2,4(1H,3H)-dione], the midpoint of inhibition against CD73 [1], the IC50, lay at 0.301 µM. It took 0.0792 µM to reach a half-maximal effect at CD73 [2] (EC50).

Regarding `CC(C)c1cc(-c2c[nH]c(=O)[nH]c2=O)nn2cc(C(F)(F)F)nc12` [Example 15, 5-(8-isopropyl-2-(trifluoromethyl)imidazo[1,2-b]pyridazin-6-yl)pyrimidine-2,4(1H,3H)-dione], the IC50 on CD73 [1] turned out to be 2.35 µM. The molecule further showed an EC50 on CD73 [2] of 0.92 µM.

In the case of `CC(C)c1cc(-c2c[nH]c(=O)[nH]c2=O)nn2cnnc12` [Example 16, 5-(8-isopropyl-[1,2,4]triazolo[4,3-b]pyridazin-6-yl)pyrimidine-2,4(1H,3H)-dione], at CD73 [1], the IC50 amounted to 0.362 µM. This molecule also displayed an EC50 on CD73 [2] of 0.333 µM.

Regarding `O=c1[nH]cc(-c2cc(Cc3ccccc3)c3nccn3n2)c(=O)[nH]1` [Example 17, 5-(8-benzylimidazo[1,2-b]pyridazin-6-yl)-1H-pyrimidine-2,4-dione], the IC50 on CD73 [1] was > 2.5 µM. This molecule also registered an EC50 on CD73 [2] of 3.67 µM.

In the case of `O=c1[nH]cc(-c2cc(C3(C(F)(F)F)CC3)c3nccn3n2)c(=O)[nH]1` [Example 18, 5-[8-[1-(trifluoromethyl)cyclopropyl]imidazo[1,2-b]pyridazin-6-yl]-1H-pyrimidine-2,4-dione], the IC50 against CD73 [1] was > 2.5 µM. In addition, the EC50 at CD73 [2] was 20.4 µM.

In the case of `O=c1[nH]cc(-c2cc(C3(C(F)(F)F)CC3)c3nc(C4(C(F)(F)F)CC4)cn3n2)c(=O)[nH]1` [Example 19, 5-[2,8-bis[1-(trifluoromethyl)cyclopropyl]imidazo[1,2-b]pyridazin-6-yl]-1H-pyrimidine-2,4-dione], the IC50 against CD73 [1] was > 2.5 µM. In addition, the EC50 on CD73 [2] was > 25 µM.

For `O=c1[nH]cc(-c2cc(CS(=O)(=O)c3ccccc3)c3nccn3n2)c(=O)[nH]1` [Example 20, 5-[8-(benzenesulfonylmethyl)imidazo[1,2-b]pyridazin-6-yl]-1H-pyrimidine-2,4-dione], the half-inhibitory concentration (IC50) against CD73 [1] is > 2.5 µM. The EC50 at CD73 [2] is > 25 µM.

As to `O=c1[nH]cc(-c2cc(CS(=O)(=O)c3ccccc3)c3nc(CS(=O)(=O)c4ccccc4)cn3n2)c(=O)[nH]1` [Example 21, 5-[2,8-bis(benzenesulfonylmethyl)imidazo[1,2-b]pyridazin-6-yl]-1H-pyrimidine-2,4-dione], the concentration for half-maximal inhibition (IC50) on CD73 [1] is > 2.5 µM. Moreover, the concentration for a half-maximal effect (EC50) at CD73 [2] was > 25 µM.

Consider `O=c1[nH]cc(-c2ccc3nccn3n2)c(=O)[nH]1` [Example 23, 5-(imidazo[1,2-b]pyridazin-6-yl)pyrimidine-2,4(1H,3H)-dione], for which, on CD73 [1], the IC50 is > 2.5 µM. The half-maximal effective concentration (EC50) at CD73 [2] was > 25 µM.

Molecule `O=c1[nH]cc(-c2cc(OC3CC3)c3nccn3n2)c(=O)[nH]1` [Example 24, 5-(8-cyclopropoxyimidazo[1,2-b]pyridazin-6-yl)pyrimidine-2,4(1H,3H)-dione] showed an IC50 against CD73 [1] of 1.26 µM. The molecule further had an EC50 at CD73 [2] of 1.23 µM.

As to `CC(C)Oc1cc(-c2c[nH]c(=O)[nH]c2=O)nn2ccnc12` [Example 25, 5-(8-isopropoxyimidazo[1,2-b]pyridazin-6-yl)pyrimidine-2,4(1H,3H)-dione], on CD73 [1], the IC50 is 0.657 µM and 0.557 µM. The EC50 on CD73 [2] was 0.361 µM and 0.429 µM.

With `O=c1[nH]cc(-c2cc(OCc3ccccc3)c3nccn3n2)c(=O)[nH]1` [Example 26], on CD73 [1], inhibition was half-maximal at 0.161 µM (IC50). At CD73 [2], the midpoint of the response, the EC50, lay at 0.184 µM.

`O=c1[nH]cc(-c2cc(C3CC3)n3nccc3n2)c(=O)[nH]1` [Example 27, 5-(7-cyclopropylpyrazolo[1,5-a]pyrimidin-5-yl)pyrimidine-2,4(1H,3H)-dione] yielded an IC50 on CD73 [1] of 0.0904 µM. For the same molecule, the midpoint of the response at CD73 [2], the EC50, lay at 0.145 µM.

Take `Cc1nc2c(C3CCC(F)(F)CC3)cc(-c3c[nH]c(=O)[nH]c3=O)nn2n1` [Example 55, 5-(8-(4,4-difluorocyclohexyl)-2-methyl-[1,2,4]triazolo[1,5-b]pyridazin-6-yl)pyrimidine-2,4(1H,3H)-dione]: the IC50 against CD73 [1] is > 2.5 µM. On CD73 [2], this molecule had an EC50 of 0.872 µM.

Turning to `N#Cc1cnc2c(C3CCC(F)(F)CC3)cc(-c3c[nH]c(=O)[nH]c3=O)nn12` [Example 56, 8-(4,4-difluorocyclohexyl)-6-(2,4-dioxo-1,2,3,4-tetrahydropyrimidin-5-yl)imidazo[1,2-b]pyridazine-3-carbonitrile], the 50% inhibitory concentration (IC50) at CD73 [1] is > 2.5 µM. At CD73 [2], this molecule showed an EC50 of 4.46 µM.

Consider `Cc1cnc2c(C3CCC(F)(F)CC3)cc(-c3c[nH]c(=O)[nH]c3=O)nn12` [Example 57, 5-(8-(4,4-difluorocyclohexyl)-3-methylimidazo[1,2-b]pyridazin-6-yl)pyrimidine-2,4(1H,3H)-dione], for which, at CD73 [1], the 50% inhibitory concentration (IC50) is > 2.5 µM. On CD73 [2], the midpoint of the response, the EC50, lay at 3.3 µM.

Turning to `O=c1[nH]cc(-c2cc(COCc3ccccc3)c3nccn3n2)c(=O)[nH]1` [Example 58, 5-(8-((benzyloxy)methyl)imidazo[1,2-b]pyridazin-6-yl)pyrimidine-2,4(1H,3H)-dione], the IC50 against CD73 [1] was 0.548 µM. This molecule gave an EC50 on CD73 [2] of 0.704 µM.

As for `O=c1[nH]cc(-c2cc(N3CC(c4ccccc4)C3)c3nccn3n2)c(=O)[nH]1` [Example 59, 5-(8-(3-phenylazetidin-1-yl)imidazo[1,2-b]pyridazin-6-yl)pyrimidine-2,4(1H,3H)-dione], inhibition on CD73 [1] was half-maximal at 0.065 µM (IC50). The same molecule registered an EC50 on CD73 [2] of 0.0717 µM.

Broadly, the IC50 is the point on the concentration scale where inhibition reaches its midpoint. Read a high IC50 as a need for much substance. For orientation: EC50 means the concentration needed to bring the measured effect to its halfway point. A higher EC50 goes with lower potency in that assay.

Source of the values: US20240043427A1 (Gilead Sciences, Inc., priority 2020, published 2024).
